# Test: recombinant UMI read abundance after kanamycin selection (control-corrected) (log10(CPM+1)); higher = more efficient recombination; extreme values may be limits of the assay; sequences stand for … in AGTGCAGAGAAAATCGGCCAGTTTTCTCTGCCTGCAGTCCGCATGCCGTGGGACCCCTTGGGTTCTAACCTGTTGCCTAGATTTATGCAGCGGACTGCCTTTCTCCCAAAGTGATAAACCGG…AGGTTGGTTTCACT; site = the 11-nt donor
# How it was run: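 Under IPTG (0.07 mM) plus kanamycin, or without selection, Escherichia coli carrying a UMI-tagged donor and donor-binding-loop pair library and a target plasmid for the IS621 bridge recombinase were plated in two replicates. Recombinant UMIs were PCR-amplified across the donor–target junction and sequenced. Counts were converted to CPM, averaged over replicates, scaled by control-derived factors and reported as log10(CPM+1).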
# 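Note: IS621 bridge recombinase in Escherichia coli cells against a fixed T5 target plasmid.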
row,Sequence,recombinant UMI read abundance (log10)
1,GGGCAGCCATGGACCGGTTTTCCCGGTAATCCGTATTTGGG (site GGGCAGCCTCC),0.0377
2,GGGCATGCATGGACCGGTTTTCCCGGTAATCCGTATTTGAA (site GGGCATGCTTT),1.59
3,GGGCCAACATGGACCGGTTTTCCCGGTAATCCGTATTTGTA (site GGACCAACTTA),0.317
4,GGGCCAACATGGACCGGTTTTCCCGGTAATCCGTATTTGTA (site GGCCCAACTTA),0.0205
5,GGGCCAACATGGACCGGTTTTCCCGGTAATCCGTATTTGTA (site GGGCCAACTTA),0.645
6,GGGCCAACATGGACCGGTTTTCCCGGTAATCCGTATTTGTA (site GGTCCAACTTA),0.0061
7,GGGCGACCATGGACCGGTTTTCCCGGTAATCCGTATTTGTT (site GGGCGACCTAA),0
8,GGGCGCCCATGGACCGGTTTTCCCGGTAATCCGTATTTGGG (site GGGCGCCCTCC),0.0048
9,GGGCTGGCATGGACCGGTTTTCCCGGTAATCCGTATTTGAC (site GGGCTGGCTGT),0.6
10,GGGGAGCCATGGACCGGTTTTCCCGGTAATCCGTATTTGAA (site GGGGAGCCTTT),0
11,GGGGATACATGGACCGGTTTTCCCGGTAATCCGTATTTGAT (site GGGGATACTAT),1.2
12,GGGGCAACATGGACCGGTTTTCCCGGTAATCCGTATTTGCA (site GGGGCAACTTG),1.4
13,GGGGCAACATGGACCGGTTTTCCCGGTAATCCGTATTTGCA (site GGGGCACCTTG),0.00712
14,GGGGCAACATGGACCGGTTTTCCCGGTAATCCGTATTTGCA (site GGGGCAGCTTG),0
15,GGGGCAACATGGACCGGTTTTCCCGGTAATCCGTATTTGCA (site GGGGCATCTTG),0
16,GGGGCACCATGGACCGGTTTTCCCGGTAATCCGTATTTGAA (site GGGGCACCTTA),0.00926
17,GGGGCACCATGGACCGGTTTTCCCGGTAATCCGTATTTGAA (site GGGGCACCTTC),0.018
18,GGGGCACCATGGACCGGTTTTCCCGGTAATCCGTATTTGAA (site GGGGCACCTTG),0
19,GGGGCACCATGGACCGGTTTTCCCGGTAATCCGTATTTGAA (site GGGGCACCTTT),0.0108
20,GGGGCACCATGGACCGGTTTTCCCGGTAATCCGTATTTGCC (site GGGGCACCTAG),0.0374
21,GGGGCACCATGGACCGGTTTTCCCGGTAATCCGTATTTGCC (site GGGGCACCTCG),0.0076
22,GGGGCACCATGGACCGGTTTTCCCGGTAATCCGTATTTGCC (site GGGGCACCTGG),0
23,GGGGCACCATGGACCGGTTTTCCCGGTAATCCGTATTTGCC (site GGGGCACCTTG),0.00491
24,GGGGCCCCATGGACCGGTTTTCCCGGTAATCCGTATTTGCA (site GGGGCACCTTG),0.00505
25,GGGGCCCCATGGACCGGTTTTCCCGGTAATCCGTATTTGCA (site GGGGCCCCTTG),0.411

row,Sequence,recombinant UMI read abundance (log10)
1,GGGGCCCCATGGACCGGTTTTCCCGGTAATCCGTATTTGCA (site GGGGCGCCTTG),0.0155
2,GGGGCCCCATGGACCGGTTTTCCCGGTAATCCGTATTTGCA (site GGGGCTCCTTG),0.0122
3,GGGGGACCATGGACCGGTTTTCCCGGTAATCCGTATTTGCA (site GGGGAACCTTG),0
4,GGGGGACCATGGACCGGTTTTCCCGGTAATCCGTATTTGCA (site GGGGCACCTTG),0
5,GGGGGACCATGGACCGGTTTTCCCGGTAATCCGTATTTGCA (site GGGGGACCTTG),0
6,GGGGGACCATGGACCGGTTTTCCCGGTAATCCGTATTTGCA (site GGGGTACCTTG),0
7,GGGGTACCATGGACCGGTTTTCCCGGTAATCCGTATTTGCA (site GGGGAACCTTG),0
8,GGGGTACCATGGACCGGTTTTCCCGGTAATCCGTATTTGCA (site GGGGCACCTTG),0
9,GGGGTACCATGGACCGGTTTTCCCGGTAATCCGTATTTGCA (site GGGGGACCTTG),0
10,GGGGTACCATGGACCGGTTTTCCCGGTAATCCGTATTTGCA (site GGGGTACCTTG),0
11,GGGGTGGCATGGACCGGTTTTCCCGGTAATCCGTATTTGGT (site GGAGTGGCTAC),0.553
12,GGGGTGGCATGGACCGGTTTTCCCGGTAATCCGTATTTGGT (site GGCGTGGCTAC),0.0131
13,GGGGTGGCATGGACCGGTTTTCCCGGTAATCCGTATTTGGT (site GGGGTGGCTAC),0.659
14,GGGGTGGCATGGACCGGTTTTCCCGGTAATCCGTATTTGGT (site GGTGTGGCTAC),0.146
15,GGGTATCCATGGACCGGTTTTCCCGGTAATCCGTATTTGTT (site CGGAATCCTAA),0
16,GGGTATCCATGGACCGGTTTTCCCGGTAATCCGTATTTGTT (site GGGTATCCTAA),0.0203
17,GGGTCACCATGGACCGGTTTTCCCGGTAATCCGTATTTGCA (site GGGACACCTTG),0
18,GGGTCACCATGGACCGGTTTTCCCGGTAATCCGTATTTGCA (site GGGCCACCTTG),0
19,GGGTCACCATGGACCGGTTTTCCCGGTAATCCGTATTTGCA (site GGGGCACCTTG),0
20,GGGTCACCATGGACCGGTTTTCCCGGTAATCCGTATTTGCA (site GGGTCACCTTG),0
21,GGGTGTGCATGGACCGGTTTTCCCGGTAATCCGTATTTGGC (site GGGTGTGCTGC),3
22,GGGTTCCCATGGACCGGTTTTCCCGGTAATCCGTATTTGTC (site GGGTTCCCTGA),0
23,GGTAAACCATGGACCGGTTTTCCCGGTAATCCGTATTTGAA (site GGTAAACCTTT),0
24,GGTACGGCATGGACCGGTTTTCCCGGTAATCCGTATTTGTT (site GGTACGACTAA),0.00937
25,GGTACGGCATGGACCGGTTTTCCCGGTAATCCGTATTTGTT (site GGTACGCCTAA),0.0122

row,Sequence,recombinant UMI read abundance (log10)
1,GGTACGGCATGGACCGGTTTTCCCGGTAATCCGTATTTGTT (site GGTACGGCTAA),0.0127
2,GGTACGGCATGGACCGGTTTTCCCGGTAATCCGTATTTGTT (site GGTACGTCTAA),0
3,GGTACGTCATGGACCGGTTTTCCCGGTAATCCGTATTTGCT (site GGTACGTCTAA),0.0386
4,GGTACGTCATGGACCGGTTTTCCCGGTAATCCGTATTTGCT (site GGTACGTCTAC),0.0226
5,GGTACGTCATGGACCGGTTTTCCCGGTAATCCGTATTTGCT (site GGTACGTCTAG),2
6,GGTACGTCATGGACCGGTTTTCCCGGTAATCCGTATTTGCT (site GGTACGTCTAT),0.00579
7,GGTACGTCATGGACCGGTTTTCCCGGTAATCCGTATTTGGT (site GGTACGTCTAA),0.00807
8,GGTACGTCATGGACCGGTTTTCCCGGTAATCCGTATTTGGT (site GGTACGTCTAC),1.33
9,GGTACGTCATGGACCGGTTTTCCCGGTAATCCGTATTTGGT (site GGTACGTCTAG),0
10,GGTACGTCATGGACCGGTTTTCCCGGTAATCCGTATTTGGT (site GGTACGTCTAT),0.339
11,GGTACGTCATGGACCGGTTTTCCCGGTAATCCGTATTTGTG (site GGTACGTCTAA),0.0133
12,GGTACGTCATGGACCGGTTTTCCCGGTAATCCGTATTTGTG (site GGTACGTCTCA),0.338
13,GGTACGTCATGGACCGGTTTTCCCGGTAATCCGTATTTGTG (site GGTACGTCTGA),0
14,GGTACGTCATGGACCGGTTTTCCCGGTAATCCGTATTTGTG (site GGTACGTCTTA),0
15,GGTACGTCATGGACCGGTTTTCCCGGTAATCCGTATTTGTT (site AGTACGTCTAA),0.0112
16,GGTACGTCATGGACCGGTTTTCCCGGTAATCCGTATTTGTT (site CGTACGTCTAA),0
17,GGTACGTCATGGACCGGTTTTCCCGGTAATCCGTATTTGTT (site GATACGTCTAA),0.00543
18,GGTACGTCATGGACCGGTTTTCCCGGTAATCCGTATTTGTT (site GCTACGTCTAA),0.0161
19,GGTACGTCATGGACCGGTTTTCCCGGTAATCCGTATTTGTT (site GGAACGTCTAA),0.0323
20,GGTACGTCATGGACCGGTTTTCCCGGTAATCCGTATTTGTT (site GGCACGTCTAA),0.0185
21,GGTACGTCATGGACCGGTTTTCCCGGTAATCCGTATTTGTT (site GGGACGTCTAA),0.0133
22,GGTACGTCATGGACCGGTTTTCCCGGTAATCCGTATTTGTT (site GGTAAGTCTAA),0
23,GGTACGTCATGGACCGGTTTTCCCGGTAATCCGTATTTGTT (site GGTACATCTAA),0.535
24,GGTACGTCATGGACCGGTTTTCCCGGTAATCCGTATTTGTT (site GGTACCTCTAA),0.0198
25,GGTACGTCATGGACCGGTTTTCCCGGTAATCCGTATTTGTT (site GGTACGACTAA),0.0066

# From the supplement of paper PMC11208160
